Reference: ChEMBL document CHEMBL1153155, “Ring-fused pyrazole derivatives as potent inhibitors of lymphocyte-specific kinase (Lck): Structure, synthesis, and SAR” (Bioorg Med Chem Lett, 2010)

Columns and labels:
Lymphocyte = assay: Immunosuppressive activity in C57BL/6 mouse lymphocytes cocultured with mitomycin C-stimulated BALB/c mouse splenocyte assessed as [3H]thymidine incorporation after 72 hrs by mixed lymphocyte reaction
[1] = target: Tyrosine-protein kinase Lck (Homo sapiens, UniProt P06239); assay: Inhibition of GST-tagged human LCK by scintillation counting
[2] = target: Proto-oncogene tyrosine-protein kinase Src (Homo sapiens, UniProt P12931); assay: Inhibition of SRC
[3] = Inhibition of PKA
[4] = target: RAC-alpha serine/threonine-protein kinase (Homo sapiens, UniProt P31749); assay: Inhibition of PKBalpha
[5] = target: Tyrosine-protein kinase CSK (Homo sapiens, UniProt P41240); assay: Inhibition of Csk
[6] = target: T1, Calcium/calmodulin-dependent protein kinase type IV (Homo sapiens, UniProt Q16566); assay: Inhibition of CamK4
T1 sequence (Q16566 whole entry): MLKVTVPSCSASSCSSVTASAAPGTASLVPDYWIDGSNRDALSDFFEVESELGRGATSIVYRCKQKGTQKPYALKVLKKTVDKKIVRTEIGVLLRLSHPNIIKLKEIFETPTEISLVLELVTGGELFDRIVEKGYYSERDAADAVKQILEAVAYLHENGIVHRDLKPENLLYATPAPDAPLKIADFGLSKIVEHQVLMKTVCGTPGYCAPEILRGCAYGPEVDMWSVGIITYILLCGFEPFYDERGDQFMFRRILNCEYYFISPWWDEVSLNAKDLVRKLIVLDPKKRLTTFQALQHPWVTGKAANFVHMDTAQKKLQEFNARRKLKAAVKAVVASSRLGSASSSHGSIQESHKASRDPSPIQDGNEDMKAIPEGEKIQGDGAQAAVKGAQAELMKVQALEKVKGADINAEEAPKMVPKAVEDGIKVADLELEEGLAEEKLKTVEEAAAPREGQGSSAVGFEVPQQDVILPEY

[7] = target: Dual specificity mitogen-activated protein kinase kinase 1 (Homo sapiens, UniProt Q02750); assay: Inhibition of MEK1
[8] = target: T2, Tyrosine-protein kinase ZAP-70 (Homo sapiens, UniProt P43403); assay: Inhibition of Zap70
T2 sequence (P43403 whole entry): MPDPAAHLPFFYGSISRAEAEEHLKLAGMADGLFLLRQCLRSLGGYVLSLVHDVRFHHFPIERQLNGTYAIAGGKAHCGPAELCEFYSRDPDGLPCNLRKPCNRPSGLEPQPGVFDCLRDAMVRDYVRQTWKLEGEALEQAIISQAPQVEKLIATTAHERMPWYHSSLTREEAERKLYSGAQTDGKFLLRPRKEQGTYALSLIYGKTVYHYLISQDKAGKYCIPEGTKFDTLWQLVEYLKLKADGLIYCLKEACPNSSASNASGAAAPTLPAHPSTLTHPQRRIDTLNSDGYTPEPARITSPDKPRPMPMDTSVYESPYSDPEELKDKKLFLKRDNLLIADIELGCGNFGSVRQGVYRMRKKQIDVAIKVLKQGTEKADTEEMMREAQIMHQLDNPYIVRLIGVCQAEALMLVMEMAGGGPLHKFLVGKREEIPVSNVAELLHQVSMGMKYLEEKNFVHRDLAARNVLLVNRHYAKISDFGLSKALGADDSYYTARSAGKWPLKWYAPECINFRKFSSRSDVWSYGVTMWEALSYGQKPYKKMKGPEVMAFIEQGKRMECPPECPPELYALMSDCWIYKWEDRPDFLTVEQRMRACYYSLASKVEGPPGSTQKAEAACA

[9] = target: Mitogen-activated protein kinase 1 (Homo sapiens, UniProt P28482); assay: Inhibition of MAPK1
[10] = target: Cyclin-dependent kinase 1 (Homo sapiens, UniProt P06493); assay: Inhibition of CDK1
[11] = target: Protein kinase C alpha type (Homo sapiens, UniProt P17252); assay: Inhibition of PKCalpha

Sequence of Tyrosine-protein kinase Lck (P06239 whole entry): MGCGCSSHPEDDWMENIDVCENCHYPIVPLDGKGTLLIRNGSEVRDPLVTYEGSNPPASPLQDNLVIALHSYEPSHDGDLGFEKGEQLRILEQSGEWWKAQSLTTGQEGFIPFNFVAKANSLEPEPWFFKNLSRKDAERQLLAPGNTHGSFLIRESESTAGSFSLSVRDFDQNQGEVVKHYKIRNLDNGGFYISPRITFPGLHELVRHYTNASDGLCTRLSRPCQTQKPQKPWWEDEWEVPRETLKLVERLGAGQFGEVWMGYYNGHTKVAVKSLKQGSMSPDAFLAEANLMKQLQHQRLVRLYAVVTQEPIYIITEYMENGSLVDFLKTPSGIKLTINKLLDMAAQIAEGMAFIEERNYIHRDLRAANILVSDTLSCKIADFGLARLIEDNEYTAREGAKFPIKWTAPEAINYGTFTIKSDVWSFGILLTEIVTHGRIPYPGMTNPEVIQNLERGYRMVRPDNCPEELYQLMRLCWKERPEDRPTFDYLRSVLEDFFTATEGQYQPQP
Sequence of Tyrosine-protein kinase CSK (P41240 whole entry): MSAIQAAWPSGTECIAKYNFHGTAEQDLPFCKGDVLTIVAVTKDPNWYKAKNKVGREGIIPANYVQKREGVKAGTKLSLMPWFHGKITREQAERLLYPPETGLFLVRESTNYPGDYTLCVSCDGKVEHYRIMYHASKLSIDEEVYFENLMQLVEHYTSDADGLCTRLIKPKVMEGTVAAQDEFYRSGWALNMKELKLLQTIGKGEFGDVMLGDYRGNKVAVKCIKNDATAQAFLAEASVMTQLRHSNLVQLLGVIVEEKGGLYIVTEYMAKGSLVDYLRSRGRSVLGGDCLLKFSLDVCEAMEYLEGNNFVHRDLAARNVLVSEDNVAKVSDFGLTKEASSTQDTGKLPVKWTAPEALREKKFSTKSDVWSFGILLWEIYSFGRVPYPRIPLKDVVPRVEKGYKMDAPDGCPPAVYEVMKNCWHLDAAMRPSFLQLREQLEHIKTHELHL
Sequence of Proto-oncogene tyrosine-protein kinase Src (P12931 2-536 limits assumed): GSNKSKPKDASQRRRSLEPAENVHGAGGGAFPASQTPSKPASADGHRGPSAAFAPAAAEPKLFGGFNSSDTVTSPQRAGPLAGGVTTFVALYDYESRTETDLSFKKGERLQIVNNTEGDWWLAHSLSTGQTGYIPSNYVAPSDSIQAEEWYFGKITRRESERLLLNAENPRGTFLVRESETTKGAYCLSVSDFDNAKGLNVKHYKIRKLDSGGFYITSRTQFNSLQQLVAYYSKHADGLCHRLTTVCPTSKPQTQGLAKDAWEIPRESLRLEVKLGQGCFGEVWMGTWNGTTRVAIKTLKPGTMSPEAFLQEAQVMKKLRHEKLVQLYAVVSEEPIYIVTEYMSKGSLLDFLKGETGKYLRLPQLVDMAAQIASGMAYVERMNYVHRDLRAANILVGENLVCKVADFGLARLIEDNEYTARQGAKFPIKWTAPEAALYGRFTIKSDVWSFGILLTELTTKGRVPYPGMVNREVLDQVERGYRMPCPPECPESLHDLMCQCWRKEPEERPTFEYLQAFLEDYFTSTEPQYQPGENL
Sequence of RAC-alpha serine/threonine-protein kinase (P31749 whole entry): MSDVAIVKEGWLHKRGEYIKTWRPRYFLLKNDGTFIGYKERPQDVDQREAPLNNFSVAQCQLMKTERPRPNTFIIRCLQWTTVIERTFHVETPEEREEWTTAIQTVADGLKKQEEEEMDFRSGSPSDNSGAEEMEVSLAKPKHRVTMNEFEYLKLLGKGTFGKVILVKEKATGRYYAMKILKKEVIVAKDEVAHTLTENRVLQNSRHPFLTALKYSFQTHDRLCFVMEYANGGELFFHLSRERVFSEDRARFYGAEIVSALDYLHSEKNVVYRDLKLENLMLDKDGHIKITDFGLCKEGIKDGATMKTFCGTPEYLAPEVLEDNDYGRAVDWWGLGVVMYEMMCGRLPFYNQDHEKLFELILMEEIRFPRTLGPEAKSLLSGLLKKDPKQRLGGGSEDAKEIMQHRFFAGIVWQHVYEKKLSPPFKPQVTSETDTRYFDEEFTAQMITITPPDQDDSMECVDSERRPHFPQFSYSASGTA
Sequence of Cyclin-dependent kinase 1 (P06493 whole entry): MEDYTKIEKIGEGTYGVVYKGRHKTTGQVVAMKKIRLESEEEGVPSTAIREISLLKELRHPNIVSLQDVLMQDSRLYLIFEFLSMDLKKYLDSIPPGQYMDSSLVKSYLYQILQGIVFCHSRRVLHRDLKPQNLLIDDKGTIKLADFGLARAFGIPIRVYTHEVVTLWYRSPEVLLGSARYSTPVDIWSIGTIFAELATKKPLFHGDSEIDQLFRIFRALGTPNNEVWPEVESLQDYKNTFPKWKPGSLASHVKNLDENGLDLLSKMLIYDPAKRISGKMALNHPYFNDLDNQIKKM
Sequence of Mitogen-activated protein kinase 1 (P28482 whole entry): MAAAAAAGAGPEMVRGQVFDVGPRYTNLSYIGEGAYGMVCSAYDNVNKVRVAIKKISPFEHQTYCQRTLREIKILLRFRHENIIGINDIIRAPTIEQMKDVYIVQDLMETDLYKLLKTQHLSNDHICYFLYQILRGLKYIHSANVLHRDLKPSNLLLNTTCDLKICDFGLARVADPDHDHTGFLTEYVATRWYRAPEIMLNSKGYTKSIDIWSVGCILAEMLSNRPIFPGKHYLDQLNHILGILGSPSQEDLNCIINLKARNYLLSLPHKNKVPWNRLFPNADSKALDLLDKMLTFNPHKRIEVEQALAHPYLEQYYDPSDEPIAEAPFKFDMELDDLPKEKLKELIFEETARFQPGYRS
Sequence of Dual specificity mitogen-activated protein kinase kinase 1 (Q02750 whole entry): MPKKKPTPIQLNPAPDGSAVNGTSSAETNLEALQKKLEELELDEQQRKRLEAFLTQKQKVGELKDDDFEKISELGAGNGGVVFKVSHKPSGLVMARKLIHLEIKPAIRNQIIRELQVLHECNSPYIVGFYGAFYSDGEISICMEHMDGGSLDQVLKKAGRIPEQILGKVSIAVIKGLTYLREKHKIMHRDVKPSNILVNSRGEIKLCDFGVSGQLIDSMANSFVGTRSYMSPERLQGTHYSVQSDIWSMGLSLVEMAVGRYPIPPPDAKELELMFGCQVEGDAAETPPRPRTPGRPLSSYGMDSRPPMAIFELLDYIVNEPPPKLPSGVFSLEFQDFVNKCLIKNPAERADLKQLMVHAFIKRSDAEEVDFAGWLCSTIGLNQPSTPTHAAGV

Row | Compound | IC50 (Lymphocyte) | also measured
1 | NC(=O)c1c(-c2ccc(Oc3ccccc3)cc2)nn2c1Nc1ccc(OCc3ccccn3)cc1CC2 | 8.4 nM | –
2 | CC(=O)COc1ccc2c(c1)Nc1c(C(N)=O)c(-c3ccc(Oc4ccccc4)cc3)nn1CC2 | 61 nM | –
3 | CN1CCN(CCOc2ccc3c(c2)Nc2c(C(N)=O)c(-c4ccc(Oc5ccccc5)cc4)nn2CC3)CC1 | 12 nM | –
4 | COc1ccc2c(c1)Nc1c(C(N)=O)c(-c3ccc(Oc4ccccc4)cc3)nn1CC2 | 300 nM | –
5 | CN(C)CCOc1ccc2c(c1)Nc1c(C(N)=O)c(-c3ccc(Oc4ccccc4)cc3)nn1CC2 | 6.4 nM | –
6 | NC(=O)c1c(-c2ccc(Oc3ccccc3)cc2)nn2c1Nc1cc(OCCO)ccc1CC2 | 58 nM | –
7 | NCCOc1ccc2c(c1)Nc1c(C(N)=O)c(-c3ccc(Oc4ccccc4)cc3)nn1CC2 | 25 nM | –
8 | CN(C)CCOc1ccc2c(c1)CCn1nc(-c3ccc(N)cc3)c(C(N)=O)c1N2 | 180 nM | –
9 | CC(C)CCCOc1ccc2c(c1)Nc1c(C(N)=O)c(-c3ccc(Oc4ccccc4)cc3)nn1CC2 | 620 nM | IC50 [1]: > 100 nM
10 | CN(C)CCOc1ccc2c(c1)CCn1nc(-c3ccc(NC(=O)Nc4c(Cl)cccc4Cl)cc3)c(C(N)=O)c1N2 | 21 nM | –
11 | CN(C)CCCOc1ccc2c(c1)CCn1nc(-c3ccc(Oc4ccccc4)cc3)c(C(N)=O)c1N2 | 0.85 nM | –
12 | CN1CCN(CCOc2ccc3c(c2)CCn2nc(-c4ccc(Oc5ccccc5)cc4)c(C(N)=O)c2N3)CC1 | 6.7 nM | –
13 | CN(C)CCOc1ccc2c(c1)CCn1nc(-c3ccc(Nc4ccccc4)cc3)c(C(N)=O)c1N2 | 8.2 nM | –
14 | NC(=O)COc1ccc2c(c1)CCn1nc(-c3ccc(Oc4ccccc4)cc3)c(C(N)=O)c1N2 | 88 nM | –
15 | NC(=O)COc1ccc2c(c1)Nc1c(C(N)=O)c(-c3ccc(Oc4ccccc4)cc3)nn1CC2 | 16 nM | –
16 | CN(C)CCOc1ccc2c(c1)CCn1nc(-c3ccc(Oc4ccccc4)cc3)c(C(N)=O)c1N2 | 0.74 nM | IC50 [2]: 0.6 nM; IC50 [3]: > 10000 nM; IC50 [1]: 0.72 nM; IC50 [4]: > 10000 nM; IC50 [5]: 1.7 nM; IC50 [6]: > 10000 nM; IC50 [7]: > 10000 nM; IC50 [8]: > 1000 nM; IC50 [9]: > 10000 nM; IC50 [10]: > 10000 nM; IC50 [11]: > 10000 nM
17 | CN(C)CCOc1ccc2c(c1)CCn1nc(-c3ccc(NC(=O)OCc4ccccc4)cc3)c(C(N)=O)c1N2 | 23 nM | –
18 | NCCOc1ccc2c(c1)CCn1nc(-c3ccc(Oc4ccccc4)cc3)c(C(N)=O)c1N2 | 1.3 nM | –
19 | NC(=O)c1c(-c2ccc(Oc3ccccc3)cc2)nn2c1Nc1cc(OCCN3CCOCC3)ccc1CC2 | 15 nM | –
20 | NC(=O)c1c(-c2ccc(Oc3ccccc3)cc2)nn2c1Nc1ccc(OCCO)cc1CC2 | 1.2 nM | –
21 | CN(C)CCOc1ccc2c(c1)CCn1nc(-c3ccc(O)cc3)c(C(N)=O)c1N2 | 38 nM | –
22 | NC(=O)c1c(-c2ccc(Oc3ccccc3)cc2)nn2c1Nc1ccc(OCc3cccnc3)cc1CC2 | 1.5 nM | –
23 | CN(C)CCOc1ccc2c(c1)CCn1nc(-c3ccc(NC(=O)Nc4ccccc4)cc3)c(C(N)=O)c1N2 | 50 nM | –
24 | CN(C)CCCOc1ccc2c(c1)Nc1c(C(N)=O)c(-c3ccc(Oc4ccccc4)cc3)nn1CC2 | 12 nM | –
25 | CN(C)CCOc1ccc2c(c1)CCn1nc(-c3ccc(NCc4c(Cl)cccc4Cl)cc3)c(C(N)=O)c1N2 | 1.3 nM | –
26 | NC(=O)c1c(-c2ccc(Oc3ccccc3)cc2)nn2c1Nc1cc(OCc3cccnc3)ccc1CC2 | 52 nM | –
27 | NC(=O)c1c(-c2ccc(Oc3ccccc3)cc2)nn2c1Nc1cc(OCC(=O)O)ccc1CC2 | > 1000 nM | –
28 | NC(=O)c1c(-c2ccc(Oc3ccccc3)cc2)nn2c1Nc1ccc(OCCN3CCOCC3)cc1CC2 | 1.1 nM | –
29 | NC(=O)c1c(-c2ccc(Oc3ccccc3)cc2)nn2c1Nc1ccc(OCc3ccncc3)cc1CC2 | 4.4 nM | –
